The subject of data set [1] is psychotic and neurological patients (multiple sclerosis, anxiety, depression). The data set can be described thus: Clinical trials in nervous system and psychic diseases. The class given is in vivo, human.
Source text: In the psychotic patients in combination with the conventional treatment and in the neurological patients as monotherapy.
The test system of data set [2] is model animals with experimentally-induced sepsis. Particulars: 0% for untreated animals.
For data set [3], the system named is patients suffering from diabetes of type I and type II.
Data set [4] concerns rats with STZ diabetes. As to the kind of experiment: Rats with diabetes induced by streptozotocin (STZ). The class given is in vivo. The note with it: for glycemia / level of malonic dialdehyde (MDA), oxidation stress marker: in comparison to the group of the STZ untreated rats.
The test system of data set [5] is rats with experimentally developed muscles ischemia.
The subject of data set [6] is people after myocardial infarction. Particulars: 15 patients, versus control group.
Source text: II-Na salt was applied also for treatment of people after myocardial infarction.
Data set [7] relates to rats with experimental myocardial infarction. The method, then: (§1) The animals of 230 to 258 g were subjected to ether narcosis for 1-3 minutes, Next, by the thoracotomy method there was achieved access to the anterior branch of the coronary artery and its lumen was closed by means of an electrode. The wound was closed by atraumatic sutures. […] The rats were divided in two groups.
(§2) The animals were being observed for 24 hours (every one in a separate cage). […] The second group of 10 rats (5 of each group) were killed after 5 days and the third group of 10 animals (5 of each group)—after 7 days. In all the rats there was performed postmortem macroscopic examination of hearts, pleura and abdominal cavity organs. The tissues were taken from the infarct focus for microscopic examination. They were retained in formalin and stained conventionally with H-E. Blood for biochemical tests was taken by heart puncture of 3 ml volume.

For data set [8] the test system is unchanged. Particulars: for ALT / AST / CPK / LDH1, 2: blood, 5 mg/kg per 24 hours intramuscularly, n = 5. The method, then: as §1, §2
In the biochemical trials there were estimated levels of creatinine kinase (CPK), lactate dehydrogenase (LDH 1-2), aspargine transaminase (AST) and alanine transaminase (ALT) before the infarct and on 1, 5 and 7 day after the infarct (Apparatus “Immunochemistry System”, Beckman Coulter, “DSL”, “Multiscan”, Labsystem; Glycomat DSS, Drew).

Data set [9] deals with rats with alloxan diabetes. An excerpt: The results were presented below in Table 2.
The results of the trials were presented below in Table 3.

Data set [10] concerns patients with inflammatory diseases of head, maxillofacial area and neck. The note with it: above 50 patients, various forms and doses.
Data set [11] deals with patients with acute and chronic pancreatitis.
The conditions of data set [12]: background statement; cited from earlier work.
[13] abbreviates: blood, alloxan diabetes rats treated with II-Na salt (Table 2).
[14] abbreviates: blood, alloxan diabetes rats treated with II-Na salt (Table 3).

Molecules are shown by their SMILES. Like-named read-outs stand apart in the source and are kept apart here.

Turning to `Nc1cccc2c(=O)[nH][nH]c(=O)c12.[Na]` [II-Na salt, 5-amino-2,3-dihydrophthalazine-1,4-dione sodium salt], the “lymphocytic profile and cytokines” value in data set [1] (II-Na salt 100 mg per 24 hours intramuscularly for 30 days) is “normalization of the lymphocytic profile and cytokines”. For the same compound, the disease symptoms entry in data set [1] (human, in vivo) was “disease symptoms reduction”. Moreover, in data set [1] (spring and autumn, 100 mg/d, 10 injections every day and 10 every second day), the “preventive use in the period of remission” value was “long-time remission”. In data set [2], this compound registered a viability of rats of 80%. Further, the glycemia level in data set [3] (after a week of treatment, from 7.5 mmol/l, 100 mg intramuscular injection) was 5.1 mmol/L. In addition, the insulin dose in data set [3] (after a week of treatment, reduced from 45 IU) turned out to be 15 IU per day. In data set [3] (patients with diabetes of type II), the cholesterol level entry is listed as “slight reduction”. In data set [4], the glycemia stood at 62% and the “level of malonic dialdehyde (MDA), oxidation stress marker” value is 48.7%. The “level of glutathione (GSH), oxidation stress marker” value in data set [4] (result in words) is given as “does not change”. In [5] (Ischaemia-12 days), the “Number of capill. in 1 mm^3” value is 152.3 ± 12.7 in 1 mm^3. In data set [5] (Ischaemia-29 days), the “Number of capill. in 1 mm^3” value came out at 236.4 ± 16.9 in 1 mm^3. Further, in [6] (100/200 mg per 24 hours intramuscular for seven days plus conventional therapy), the “pain discomfort in the chest” value was “quicker reduction of pain discomfort in the chest”. Also, the “blood biochemical parameters (CPK, LDH, ALT, AST) and x-ray image” value in [6] is recorded as “quicker normalization of blood biochemical parameters”. The “polymorphic-nucleated leucocytes in the demarcation zone” value in data set [7] (fifth day) is listed as “not observed”. Also, the “postoperative wound healed by first intension (per primam)” value in data set [7] (fifth day, 4 rats without II-Na salt) is on record as “all 5 rats”. In data set [7] (first 24 hours after the infarct), the leucocytes migration result was “not observed”. In [7] (fourteenth day, 5 mg/kg), the “fibrosis (Weinert's staining)” value is listed as “only few traits of fibrosis” and the polymorphic-nucleated leucocytes entry is listed as “not observed”. Moreover, the “regeneration processes of damaged tissues” value in data set [7] (overall conclusion) was “positive influence on regeneration processes of damaged tissues”. Moreover, in data set [7] (seventh day), the “capillary vessels in the infarct zone” value is “normal of the sinusoidal type”. Besides, in [8] (fifth day after infarct), the ALT came to 0.271 ± 0.059 µmol/L; the AST is 0.204 ± 0.03 µmol/L; the CPK was 405.28 ± 27.84 µmol/L; the “LDH1, 2” value came to 187.94 ± 34.37 µmol/L. For the same compound, in data set [8] (first day after infarct), the ALT was 0.178 ± 0.028 µmol/L; the AST amounted to 0.254 ± 0.034 µmol/L; the CPK came out at 322.56 ± 43.79 µmol/L; the “LDH1, 2” value was determined as 248.84 ± 41.10 µmol/L. Besides, in [8] (seventh day after infarct), the ALT came to 0.24 ± 0.024 µmol/L; the AST was 0.225 ± 0.024 µmol/L; the CPK was 291.35 ± 18.9 µmol/L; the “LDH1, 2” value amounted to 175.5 ± 25.89 µmol/L. Also, in data set [8] (conclusion on Table 1), the “normalization of the tested blood parameters” value is reported as “quicker normalization of all the tested parameters”. Also, in [9] (blood, alloxan diabetes rats treated with II-Na salt), the IGF-1 amounted to 699.13 ± 81.4 ng/mL. In data set [9] (setting [13]), the IGF-2 was 37.9 ± 1.65 ng/mL and the Insulin came out at 0.724 ± 0.08 mg/mL. For the same compound, in [9] (setting [14]), the IGF-2 was 37.9 ± 1.65 ng/mL and the Insulin stood at 7.24e-07 ± 8e-08 mg/mL. Further, in data set [9] (blood, alloxan diabetes rats treated with II-Na salt, 5 mg per kg per 24 hours for a month, sodium salt), the Glucose was 4.16 ± 0.56 mmol/L. In [9] (blood, alloxan diabetes rats treated with II-Na salt, sodium salt), the “Glycated hemoglobin (Hb A1C)” value was found to be 9.05 ± 0.58 %. The IGF-1/IGF-2 in [9] (ratio, alloxan diabetes rats treated with II-Na salt) is 16.2 ± 2.4. Moreover, in [10], the “effect on inflammatory state” value is “quicker tissues regeneration, inhibition of apoptosis and quicker symptoms subsidence or remission maintenance”. Also, in data set [11] (2 patients, after treatment), the “starting formation of pseudocysts” value is given as “disappeared”. Moreover, the septic complications result in data set [11] (25 patients, conventional therapy plus II-Na salt) is “one patient”. Also, the “normalization of the laboratory tests results” value in data set [11] (after a month, of 25 patients) is reported as “twenty two patients”. Also, the “patients who could come back to nutrition per os” value in data set [11] (after three weeks of treatment, of 25 patients) is reported as “twenty patients”. In data set [11] (after two weeks of treatment), the insulin level result is “raised nearly to normal” and the “reduction of the glucose level” value is listed as “two times”. Besides, in data set [11] (after two weeks of treatment, fifteen patients with reduced insulin level), the “reduction Hb1AC” value is “in six patients to the normal range”. For the same compound, the insulin administration in data set [11] (after two weeks of treatment, from up to 40 IU/day) was determined as 10 IU/day. For the same compound, in [11] (control group: above two weeks), the “pain disappeared in all patients (time)” value is “seven days”. Moreover, the “pain symptoms reduced in all the patients (time)” value in data set [11] (day of treatment) was “second day”. Moreover, in data set [11] (research (rats, 5 mg per kg per 24 hours for a month) and clinical trials), the “effects observed in the pancreas” value is “inhibition of inflammatory and necrotic processes in the pancreas”.

As for `Nc1cccc2c(=O)[nH][nH]c(=O)c12` [luminol, 5-Amino-2,3-dihydrophthalazine-1,4-dione], in data set [12], the solubility in water entry is “poorly soluble in water”.

Regarding `Nn1[nH]c(=O)c2ccccc2c1=O.[Na]` [compound III, 2-amino-1,2,3,4-tetrahydrophthalazine-1,4-dione sodium salt], the solubility in water result in [12] is on record as “easily soluble in water”.

Consider `CN(CCOc1ccc(CC2SC(=O)NC2=O)cc1)c1ccccn1` (centres unmarked) [Rosiglytazone, reference compound], for which, in [4], the glycemia is recorded as 55% and the “level of malonic dialdehyde (MDA), oxidation stress marker” value was 54%. Also, in data set [4] (in comparison to the healthy rats), the “level of glutathione (GSH), oxidation stress marker” value is on record as 127%.

These data come from patent US8536171B2, “Method for obtaining 5-amino 2,3-dihydrophthalazine-1,4-dione alkali metal salts and their use in medicine” (Abidopharma PL SP. Z.O.O., priority 2009, dated 2013).
